This passage reports inhibition results from ChEMBL document CHEMBL3880384, “2-Phenylquinoxalines as inhibitors for MPP1” (2006).

Calls of active or inactive are those of the source. The calls are words filed in the database; no cut-off is given here.

In this assay the target is Kinesin-like protein KIF20B (Homo sapiens) (UniProt Q96Q89). The experiment in a line: Inhibition of MPP1 in human HeLaS3 cells assessed as induction of binucleate phenotype after 18 hrs. Conditions: HeLa S3. It is filed as cell-based.
Sequence of Kinesin-like protein KIF20B (Homo sapiens) (Q96Q89 whole entry): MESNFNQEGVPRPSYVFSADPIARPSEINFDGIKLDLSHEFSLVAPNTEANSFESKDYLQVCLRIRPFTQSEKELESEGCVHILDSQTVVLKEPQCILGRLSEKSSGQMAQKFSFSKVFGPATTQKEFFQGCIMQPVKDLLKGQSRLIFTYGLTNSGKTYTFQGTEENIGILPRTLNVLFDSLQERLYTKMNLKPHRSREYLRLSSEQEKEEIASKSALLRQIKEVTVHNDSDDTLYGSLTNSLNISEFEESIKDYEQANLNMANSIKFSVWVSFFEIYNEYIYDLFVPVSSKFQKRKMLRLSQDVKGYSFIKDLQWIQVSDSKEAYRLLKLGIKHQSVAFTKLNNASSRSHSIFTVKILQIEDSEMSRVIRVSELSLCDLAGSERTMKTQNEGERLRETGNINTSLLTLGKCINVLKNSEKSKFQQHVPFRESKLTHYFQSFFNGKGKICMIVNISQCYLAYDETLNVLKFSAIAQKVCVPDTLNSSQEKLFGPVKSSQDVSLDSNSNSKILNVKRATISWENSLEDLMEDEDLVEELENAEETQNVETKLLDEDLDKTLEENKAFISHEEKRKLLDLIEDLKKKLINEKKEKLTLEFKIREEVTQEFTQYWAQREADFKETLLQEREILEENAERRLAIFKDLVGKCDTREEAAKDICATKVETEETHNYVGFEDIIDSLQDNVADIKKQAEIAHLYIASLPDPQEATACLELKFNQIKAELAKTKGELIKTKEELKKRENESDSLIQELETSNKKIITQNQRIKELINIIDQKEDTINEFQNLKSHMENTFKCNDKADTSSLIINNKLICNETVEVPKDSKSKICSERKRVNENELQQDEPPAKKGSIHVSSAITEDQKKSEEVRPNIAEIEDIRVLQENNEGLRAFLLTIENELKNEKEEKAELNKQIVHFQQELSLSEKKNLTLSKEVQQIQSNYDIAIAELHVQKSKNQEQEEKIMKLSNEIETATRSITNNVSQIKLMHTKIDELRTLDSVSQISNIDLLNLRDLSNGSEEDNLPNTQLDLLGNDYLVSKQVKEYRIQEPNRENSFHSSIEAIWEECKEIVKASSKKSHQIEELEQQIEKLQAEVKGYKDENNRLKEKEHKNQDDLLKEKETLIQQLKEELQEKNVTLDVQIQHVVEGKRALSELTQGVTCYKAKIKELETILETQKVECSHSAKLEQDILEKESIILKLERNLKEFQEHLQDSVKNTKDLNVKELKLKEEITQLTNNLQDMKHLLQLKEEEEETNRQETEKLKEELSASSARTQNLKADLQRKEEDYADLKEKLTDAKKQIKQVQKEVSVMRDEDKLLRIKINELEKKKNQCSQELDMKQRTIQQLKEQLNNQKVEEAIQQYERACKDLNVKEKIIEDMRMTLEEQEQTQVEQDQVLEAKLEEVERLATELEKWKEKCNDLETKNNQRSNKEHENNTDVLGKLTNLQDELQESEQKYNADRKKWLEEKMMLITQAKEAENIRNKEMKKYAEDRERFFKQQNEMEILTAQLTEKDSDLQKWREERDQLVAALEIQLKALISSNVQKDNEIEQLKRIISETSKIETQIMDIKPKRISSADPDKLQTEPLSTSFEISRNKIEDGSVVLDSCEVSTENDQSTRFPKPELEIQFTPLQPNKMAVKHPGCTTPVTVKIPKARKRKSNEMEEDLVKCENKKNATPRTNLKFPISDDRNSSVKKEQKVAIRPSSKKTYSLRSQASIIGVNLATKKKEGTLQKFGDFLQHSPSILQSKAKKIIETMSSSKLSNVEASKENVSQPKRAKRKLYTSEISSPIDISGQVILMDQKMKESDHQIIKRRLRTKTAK

On to `FC(F)(F)c1cc(Cl)c2ncc(-c3ccc(Cl)c(Cl)c3)nc2c1`, for which the inhibition result was “Active”.
